# Data: US20250114335A1, “METHODS AND COMPOSITIONS FOR THE TREATMENT OF EPILEPSY” (ARIZONA BOARD OF REGENTS ON BEHALF OF THE UNIVERSITY OF …, priority 2022, published 2025)
# Where “and” joins values, the source holds several entries; their conditions need not be identical. Equal entries are not always repeated.
# How the values were obtained:
# [1] = system: B6-D/+ (Scn8a-N1768D) adult mice; assay: Survival and seizure frequency, adult B6-D/+ mice followed for the entire lifespan; format: in vivo, mouse; parameters: reduction in post-onset seizure frequency: concentration or dose not given beside the values; conditions: for observed standard effect size, Kaplan-Meier survival: treated versus untreated
# Text: (§1) Mouse strains: The C57BL/6J-N1768D congenic mouse (B6-D/+) was used for phenotyping, RNAseq, and BBB studies. In addition, a hybrid strain that was produced by backcross breeding to transfer the Scn8a-N1768D allele from the B6 to the C3H/HeJ strain background was used to further assess the effect of CND on survival and seizure frequency. After constructing an F1 by crossing male B6-D/+ heterozygotes to female C3H/HeJ, five rounds of backcrossing (N6) produced a […] and 98.5% C3H/HeJ-N1768D line (C3H-D/+). Sister-brother mating maintained the 98.5% C3H background. […] C3H-D/D mice have a delayed seizure onset (˜40-45 days) and an extended survival (65-70 days) with intermittent bouts of TCs (FIG. 1A).
# (§2) Phenotyping: Female and male mice on both the B6 and C3H backgrounds were housed in sex-specific groups of 3-4 per cage in a pathogen-free mouse facility with a 14 h light/10 h dark cycle (lights turned on at 5 am). A 24/7 video monitoring system was utilized to collect seizure data, with infrared illumination to monitor behavior during the dark period. Seizures were counted as individual TCs. Adult mice were followed from the age of 6 weeks, a period of time well before seizure onset, in order to identify the day of seizure onset. A seizure bout was defined as a cluster of seizures on consecutive days, and a gap as a seizure-free period of 3 days or more.
# (§3) Preparation of CND suspension for injections and oral dosing: Juvenile B6-D/D and adult B6-D/+ mice were given subcutaneous (s.c.) injections with either CND (2-4 mg/kg/day; doses that fall within the FDA-approved range for CND in both adults and children) or vehicle (VEH) (Sigma-Aldrich) (FIG. 1B). Oral dosing of adults was performed by thoroughly mixing 160 μl of suspension containing 1.28 mg of CND or VEH with 5 g of pure (organic) peanut butter in a petri dish. Mice were given 1 g pellet per mouse each day. Pellets were weighed each day to record the amount consumed, and 24/7 video was used to verify that each mouse was consuming the pellet. An average of 0.79 g (±0.36 g) was consumed by an adult mouse (˜20-25 g), corresponding to 9.1±4.2 mg/kg/day. No correlations were found for the amount of CND consumed and lifetime survival or number of TCs.
# Survival and seizure frequency studies: B6-D/D mice were injected with CND (n=10) or VEH (n=10) at 15 days of age (P15) and followed to monitor TCs by 24/7 video recording until death (FIG. 1B). A separate set of 10 B6-D/D mice was administered a daily s.c. injection of 25 mg/kg/day phenytoin (PHT) suspension or VEH (US Pharmacopeia, Sigma-Aldrich). […] Mice were monitored for seizures by 24/7 video recording until the time of death.
# [2] = system: C3H-D/D (Scn8a-N1768D) adult mice; assay: Survival and seizure frequency, adult C3H-D/D mice followed until death; format: in vivo, mouse; conditions: Treated
# Text: as §1, §2, §3
# Data for the untreated mice were previously reported. Table 1 also provides C3H-D/D summary statistics for female untreated (N=15) and treated (N=15) and male untreated (N=27) and treated (N=16) monitored until the time of death.
smiles,measurement,setting,value
"CCOc1nc2cccc(C(=O)O)c2n1Cc1ccc(-c2ccccc2-c2nnn[nH]2)cc1 [CND, candesartan]","increase in survival, treated versus untreated",[1]; B6-D/+ females,34.7%
same,reduction in post-onset seizure frequency,[1]; B6-D/+ females,88.9%
same,"observed standard effect size, Kaplan-Meier survival",[1]; B6-D/+ females,0.59
same,"increase in survival, treated versus untreated",[1]; B6-D/+ males,48.9%
same,mean days surviving longer than untreated,[1]; B6-D/+ males,44.5 days
same,reduction in post-onset seizure frequency,[1]; B6-D/+ males,56.5% and 59.1%
same,"observed standard effect size, Kaplan-Meier survival",[1]; B6-D/+ males,0.69
same,#Days survived postTC,"[1]; B6 Females (D/+), Treated",76.4 days
same,#TCs,"[1]; B6 Females (D/+), Treated",14.3 TCs
same,#TCs/day (PostTC),"[1]; B6 Females (D/+), Treated",0.24 TCs/day
same,Age at Onset,"[1]; B6 Females (D/+), Treated",91.2 days
same,gap days,"[1]; B6 Females (D/+), Treated",34.0 days
same,mean gap length,"[1]; B6 Females (D/+), Treated",8.3 days
same,Age at Death,"[1]; B6 Females (D/+), Treated, oral from seizure onset",167.6 ± 19.1 days and 167.6 days
same,#gaps (av),"[1]; B6 Females (D/+), Treated, gap = seizure-free period of 3 days or more",4.0
same,#Days survived postTC,"[1]; B6 Males (D/+), Treated Early",16.8 days
same,#TCs,"[1]; B6 Males (D/+), Treated Early",18.9 TCs
same,#TCs/day (PostTC),"[1]; B6 Males (D/+), Treated Early",2.4 TCs/day
same,#gaps (av),"[1]; B6 Males (D/+), Treated Early",2.6
same,Age at Death,"[1]; B6 Males (D/+), Treated Early",121.6 days
same,Age at Onset,"[1]; B6 Males (D/+), Treated Early",99.2 days
same,gap days,"[1]; B6 Males (D/+), Treated Early",15.0 days
same,mean gap length,"[1]; B6 Males (D/+), Treated Early",6.7 days
same,#Days survived postTC,"[1]; B6 Males (D/+), Treated Late",52.7 days
same,#TCs,"[1]; B6 Males (D/+), Treated Late",43.6 TCs
same,#TCs/day (PostTC),"[1]; B6 Males (D/+), Treated Late",1.0 TCs/day
same,#gaps (av),"[1]; B6 Males (D/+), Treated Late",4.0
same,Age at Onset,"[1]; B6 Males (D/+), Treated Late",81.3 days
same,gap days,"[1]; B6 Males (D/+), Treated Late",37.8 days
same,mean gap length,"[1]; B6 Males (D/+), Treated Late",12.4 days
same,Age at Death,"[1]; B6 Males (D/+), Treated Late (oral from seizure onset)",135.8 ± 28.4 days and 135.8 days
same,#Days survived postTC,[2]; C3H Females (D/D),68.9 days
same,#TCs,[2]; C3H Females (D/D),30.1 TCs
same,#TCs/day (PostTC),[2]; C3H Females (D/D),0.51 TCs/day
same,#gaps (av),[2]; C3H Females (D/D),7.5
same,Age at Death,[2]; C3H Females (D/D),117.4 ± 28.0 days and 117.4 days
same,Age at Onset,[2]; C3H Females (D/D),48.5 days
same,gap days,[2]; C3H Females (D/D),44.0 days
same,mean gap length,[2]; C3H Females (D/D),5.8 days
same,#Days survived postTC,[2]; C3H Males (D/D),68.9 days
same,#TCs,[2]; C3H Males (D/D),37.4 TCs
same,#TCs/day (PostTC),[2]; C3H Males (D/D),0.57 TCs/day
same,#gaps (av),[2]; C3H Males (D/D),9.8
same,Age at Death,[2]; C3H Males (D/D),117.1 ± 20.4 days and 117.1 days
same,Age at Onset,[2]; C3H Males (D/D),48.1 ± 5.1 days and 48.1 days
